Key:
[1] = test system: artificial skin; test: Quantitative analysis of ceramide in artificial skin; type: cell-based; set-up: C18SM: unit not given here; conditions: for C18SM / ceramide in artificial skin (ng/mg skin): artificial skin, LC analysis, corrected for skin weight
Experimental: Artificial skin was weighed and put in a 4-mL glass vial. After adding 2400 μL of CHCl3/MeOH (=½) and 100 μL of IS STD, the artificial skin was cut into small pieces with scissors. After sonication for 30 minutes, solutions mixing sodium lauryl sulfate (SLS) to each of dodecanoic acid 2-dodecanoylamino-3-hydroxy-2-hydroxymethyl-propyl ester obtained from the Example 2, phosphate buffered saline (PBS), octyl methoxycinnamate (OMC) and PC-104, as described in Table 2, were filtered through a PTFE syringe filter, and 1250 μL of each filtrate was transferred to an EP tube.
After completely removing the solvent using a speed vacuum dryer, the residue was redissolved by adding 100 μL of an analytical mobile phase. After centrifugation, only the supernatant was taken and analyzed after transferring to an LC vial. The concentration of ceramide was corrected for the weight of the artificial skin.

[2] = test system: Keraskin™ artificial skin; test: Recovery of damaged artificial skin (measurement of transepithelial electrical resistance); type: cell-based; conditions: for Change of TEER (%): Keraskin artificial skin, TEER after 24 h post-incubation divided by the initial value
Experimental: Transepithelial electrical resistance was measured in order to test recovery of damaged artificial skin by the compound of Example 2. Dodecanoic acid 2-dodecanoylamino-3-hydroxy-2-hydroxymethyl-propyl ester obtained from the Example 2 and phosphate buffered saline (PBS), octyl methoxycinnamate (OMC) and PC-104 were tested for comparison.
Transepithelial electrical resistance (TEER) of Keraskin™ purchased from MCTT was measured after 22 hours of pre-incubation. After placing the Keraskin™ on a 6-well plate, 400 μL of a medium was added in an insert and 5 mL of the medium was added outside the insert such that an even level was achieved inside and outside the insert. Then, measurement was made with the electrode tips of a resistance meter inside and outside the insert. TEER was measured for all the inserts, prior to the test, after treatment with the substances of Example 2 and Comparative Examples 1-3 and 24 hours after post-incubation. The TEER after the post-incubation was divided by the initial value to calculate the change in %.

[3] = test substance mixed with sodium lauryl sulfate (SLS)

| Structure (SMILES) | C18SM [1, 3] | ceramide in artificial skin (ng/mg skin) [1, 3] [ng/mg skin] | Change of TEER (%) [2] [%] | ceramide content in the artificial skin, in words ([1]; compared with PC-104) | effect of recovering damaged artificial skin (TEER), in words ([2]; compared with PC-104) | C18SM ([1]; PBS instead of SLS) | ceramide in artificial skin (ng/mg skin) ([1]; PBS instead of SLS) |
| --- | --- | --- | --- | --- | --- | --- | --- |
| CCCCCCCCCCCCCCCC(=O)N(CCO)CC(O)CN(CCO)C(=O)CCCCCCCCCCCCCCC [Comparative Example 3] | 1141.1 | 995.5 | 35.7 |  |  |  |  |
| CCCCCCCCCCCC(=O)NC(CO)(CO)COC(=O)CCCCCCCCCCC [Example 2, dodecanoic acid 2-dodecanoylamino-3-hydroxy-2-hydroxymethyl-propyl ester] | 1811.5 | 1152.4 | 70.8 | higher than that for PC-104 | higher than the conventionally used PC-104 |  |  |
| CCCCC(CC)COC(=O)C=Cc1ccc(OC)cc1 (stereo not shown) [Comparative Example 2, octyl methoxycinnamate] | 843.6 | 758.3 | 30.9 |  |  | 1747.3 | 990.8 |

Source: patent US20150290099A1, “NOVEL PSEUDOCERAMIDE COMPOUND AND PRODUCTION METHOD FOR SAME” (AMOREPACIFIC CORPORATION, priority 2012, published 2015)
